In USRE37410E, “Controlled local delivery of chemotherapeutic agents for treating solid tumors” (priority 1999, dated 2001):
Like-named read-outs stand apart in the source and are kept apart here.

Tests used:
[1] = tested on: U373; assay: cells; settings: Homo sapiens, U373 MG, read-out: ID90
[2] = In vitro release of paclitaxel from PCPP-SA (20:80) polymer discs; format: physicochemical
Method: Solid paclitaxel, obtained from Napro Biotherapeutics (Boulder, Colo.) or from the National Cancer Institute (Bethesda, Md.), was mixed with poly[bis(p-carboxyphenoxy)propane-sebacic acid] copolymer (PCPP-SA) (20:80) synthesized according to the method of Domb, A. J., and R. Langer (J. Polym. Sci. 25:3373-3386 (1987)), the teachings of which are incorporated herein by reference, to give a mixture containing 0, 20, 30, or 40% paclitaxel by weight. The paclitaxel-polymer mixture was dissolved in methylene chloride (Fluka, Switzerland) to give a 10% solution (w:v). The solvent was evaporated with a nitrogen stream to yield a dry powder. […]
The efficiency of the delivery of paclitaxel incorporated into a biodegradable polymer into the surrounding medium was assessed in vitro as follows. […]
Protocol. […] The releasing medium was replaced at specified times during the 45-day (1000 hour) incubation period, and the recovered solutions were analyzed by scintillation counting and high pressure liquid chromatography (HPLC). […] Radioactive analysis to quantify the amount of paclitaxel release was done by mixing 200 μl of the releasing buffer solution with 4 ml of a scintillation mixture composed of toluene and Lumax (Landgraat, The Netherlands) scintillation mixture in a 2:1 volume ratio. This solution was counted on a 1211 Rack β-liquid scintillation counter (LKB-Wallac OY, Finland). […]

[3] = cell-culture medium; cited from earlier work
[4] = Intracerebral distribution of paclitaxel from polymer implant; format: in vivo, rat; settings: for time course of paclitaxel brain concentration: 30 days after implant
Method: Animals. Male Fischer 344 rats weighing 200-225 g were obtained from Harlan Sprague-Dawley, Inc. (Indianapolis, Ind.), kept in standard animal facilities with 4 rats/cage, and given free access to Certified Rodent Chow No. 5002 (Ralston Purina Co., St. Louis, Mo.) and to Baltimore city water.
Preparation of the paclitaxel loaded polymer. Polymer discs containing labeled paclitaxel were prepared as above, except that a small amount of ^3 H-labeled paclitaxel (specific activity, 19.3 Ci/mmol; National Cancer Institute) in toluene was added to the initial solution of polymer and paclitaxel in methylene chloride. The polymer-paclitaxel mixture was then dried in a vacuum desiccator and pressed into discs using a table vise calibrated to form a pellet.
Paclitaxel-polymer implantation. The procedure for polymer implantation in the rat has been described by Tamargo, R. J., et al. (Cancer Res. 53:329-333 (1993)), the teachings of which are incorporated herein by reference. Briefly, the heads of anesthetized rats were shaved and prepared aseptically. The skull was exposed with a midline incision, and a 3-mm burr hole was drilled through the skull 5 mm posterior and 3 mm lateral to the bregma. The dura was incised with a microsurgical knife (Edward Weck and Co., Inc., Research Triangle Park, N.C.), and the polymer disc was inserted into the brain parenchyma. The wound was irrigated and closed with surgical clips (Clay Adams, Parsippany, N.J.).
Protocol for intracerebral drug distribution. Twelve rats were given implants of 10-mg discs containing 40% paclitaxel by weight and 0.60 μCi/mg disc weight. At 3, 9, 17, and 30 days postimplantation, groups of 3 rats each were euthanized. The skull was opened and the brain exposed. The polymer disc was removed from the brain in situ. The brain was then removed from the skull and snap frozen in heptane over dry ice. The brain was sectioned in the midline into implant and contralateral hemispheres. Each hemisphere was sectioned coronally at 2-mm intervals by using a tissue blade grid consisting of individual tissue blades arranged in parallel separated by 2-mm metal spacers. Each section was weighed, dissolved in 15 ml Solvable homogenizing solution (New England Nuclear Dupont, Boston, Mass.), and combined with 15 ml Atomlight™ scintillation mixture (New England Nuclear Dupont). The brain samples were counted on a Beckman liquid scintillation counter. Raw counts were corrected for quenching and converted to dpm using a linear regression based on a series of quenched standards.
To convert dpm/mg tissue to paclitaxel concentration, a second experiment was performed. Four rats were given implants of 40% loaded polymer discs with 0.39 μCi/mg. One rat each was sacrificed at 3, 9, 17, and 30 days. The brain was removed and frozen as above. A 2-mm coronal section was taken through the site of the polymer implant. The section was minced and extracted with ethanol. The ethanol fraction was divided in two. […] The Rf value for the paclitaxel was determined and each lane cut into 4 sections: A. origin; B, origin to paclitaxel spot; C. paclitaxel spot; and D. paclitaxel spot to solvent front. The chromatography strips were combined with Atomlight™ mixture and counted in a liquid scintillation counter. […] To determine the efficiency of extraction, the remaining half of the original extract was combined with mixture and counted, and the residual brain tissue was homogenized and counted as above. […]

## CC(=O)O[C@H]1C(=O)[C@@]2(C)[C@H]([C@H](OC(=O)c3ccccc3)[C@]3(O)C[C@H](OC(=O)[C@H](O)[C@@H](NC(=O)c4ccccc4)c4ccccc4)C(C)=C1C3(C)C)[C@]1(OC(C)=O)CO[C@@H]1C[C@@H]2O [paclitaxel]
[1]; 1 h
  IC90: 280 nM
[1]; 24 h
  IC90: 29 nM
[1]
  IC90: 7.2 nM
[2]; each of the polymer loadings, phosphate buffer pH 7.4, 37° C
  release profile: released biphasically from the polymer, with an initial burst phase followed by a slower constant release phase
[2]; released into buffer
  identity of released paclitaxel by HPLC: corresponded with intact paclitaxel
[3]
  hydrolysis to inactive compounds: less than 10%
[4]
  time course of paclitaxel brain concentration: still constant or rising throughout the rat brain 30 days after implant
[4]; listed as Paclitaxel
  time course of paclitaxel brain concentration: increased slightly during the 30 days
[4]; after implantation in the rat brain
  duration of elevated paclitaxel concentration in brain: at least one month
[4]; brain, each time point
  raw counts tissue bound: 31±3%
[4]; brain, each time point, ± standard error of the mean
  raw counts representing parent drug: approximately 56±3%
